# Data from PMC5493638, “Adiponectin is an endogenous anti-fibrotic mediator and therapeutic target” (Scientific Reports, 2017).
# Residues, ends and D or L forms follow the SMILES beside them.
# B1: adiponectin: 30 kDa secreted adipokine abundant in the circulation (protein, UniProt Q15848 19-244, looked up)
# Adiponectin: ETTTQGPGVLLPLPKGACTGWMAGIPGHPGHNGAPGRDGRDGTPGEKGEKGDPGLIGPKGDIGETGVPGAEGPRGFPGIQGRKGEPGEGAYVYRSAFSVGLETYVTIPNMPIRFTKIFYNQQNHYDGSTGKFHCNIPGLYYFAYHITVYMKDVKVSLFKKDKAMLFTYDQYQENNVDQASGSVLLHLEVGDQVWLQVYGEGERNGLYADNDNDSTFTGFLLYHDTN
# Columns and labels:
# [1] = test system: AMP-activated protein kinase (AMPK); conditions: cited from earlier work
# From the text: (§1) An alternate potential strategy is to mimic adiponectin biological activity using small molecules.
# skin fibroblasts [2] = experiment: In vitro competition binding with labeled peptides; design: species or system human; conditions: unlabeled ADP355 100 μg/ml 10 min, then ADP355-Dy675 5 μg/ml 30 min, confocal microscopy
# Method: To evaluate in vitro peptide binding, skin fibroblasts seeded on coverslips were preincubated with unlabeled ADP355 (100 μg/ml) for 10 min, followed by labeled ADP355-Dy675 (5 μg/ml), or labeled control peptide (Api88 Dy675, gift from Daniel Knappe, Leipzig, Germany) for 30 min. Cells were fixed in 4% phosphate buffered paraformaldehyde (PFA) and visualized using a Nikon A1 confocal microscope. To evaluate in vivo biodistribution, C57BL6/J mice were injected i.p. with Dy675-coupled peptide (20 μg/mouse or […]) and 10 min later, dorsal skin was harvested and processed for immunofluorescence analysis.
# [3] = Ex vivo stability in serum; format: in vitro ADME; conditions: 30 min incubation with serum, intact peptide, data not shown
# [4] = test system: normal dermal fibroblasts; experiment: TGF-ß-induced fibrotic gene expression in skin fibroblasts (qPCR, Western blot); format: cell-based, human
# From the text: (§2) Primary cultures of healthy adult and SSc skin fibroblasts, and neonatal fibroblasts, were established by explantation. The clinical features of the subjects are shown in Supplementary Table 5. Protocols for skin biopsies were approved by the Institutional Review Board at Northwestern University. Embryonic fibroblasts from AMP protein kinase (AMPK)^−/− mice and wild-type mice were a gift from Yu-Ying He (University of Chicago). When cultures reached confluence, serum-free media supplemented with 0.1% bovine serum albumin (BSA) were added prior to TGF-β2 (Peprotech, Rocky Hill, NJ) or/and ADP355 (10 μM)[37], and incubation continued for a further 24 h. Cytotoxicity was evaluated using LDH assays (Biovision).
# (§3) RNA was isolated from skin samples using RNAeasy Fibrous Tissue Mini kit (Qiagen, Valencia, CA), or from fibroblast cultures, using the RNeasy Plus mini kit (Qiagen), and processed for qPCR as described. mRNA levels were normalized to the levels of 18 S RNA or GAPDH, and the relative amounts were calculated using the 2^−ΔΔCt method.
# At the end of the experiments, fibroblasts were harvested and whole cell lysates (100 μg) were subjected to Western-blot analysis[25] using antibodies for Type I collagen (Southern Biotech), α-SMA (Sigma), phospho-Smad2/3 (Cell-Signaling), phospho-FAK (pY397, Cell Signaling), total-FAK (Cell Signaling) or GAPDH (Zymed, San Francisco, CA). […]
# [5] = cited from earlier work
# From the text: as §1
# [6] = test system: AdipoR-positive cancer cell lines; conditions: cited from earlier work
# From the text: as §1
# AdipoR = conditions: screening of 66 overlapping 10-amino acid peptides of the globular domain of adiponectin; cited from earlier work
# From the text: as §1
# [7] = test system: [SBE]4-luc (canonical Smad pathway); experiment: [SBE]4-luc transient transfection reporter assay; format: cell-based, human; conditions: transiently transfected fibroblasts, ADP355 and TGF-β 24 h, luciferase
# Method: Fibroblasts at early confluence were transfected with [SBE]4-luc plasmids or indicated reporter constructs using SuperFect Transfection (Qiagen)[61]. Cultures were incubated in serum-free media containing 0.1% BSA for 16 h, followed by ADP355 and TGF-β for a further 24 h[61]. Whole cell lysates were assayed for luciferase activities using the dual-luciferase reporter assay system (Promega, Madison, WI). In each experiment, Renilla luciferase pRL-TK (Promega) was cotransfected as control for transfection efficiency. Experiments were performed in triplicate and repeated at least twice with consistent results. For RNAi-mediated transcript silencing, fibroblasts were transfected with target-specific short interfering siRNA specific for AdipoR1/R2 (Dharmacon, Lafayette, CO) or scrambled control siRNA (10 nM, unless otherwise indicated). Twenty-four hours following transfection, fresh media containing TGF-β (2 ng/ml) or ADP355 (10 μM) were added to the cultures and incubation continued for a further 24 h.
# p-FAK Y397 = experiment: FAK phosphorylation and focal adhesion complex assembly; format: cell-based, human; conditions: normal skin fibroblasts, pretreatment with ADP355
# Method: (§4) Normal skin fibroblasts (10,000 cells/well) seeded in 8-well Lab-Tek II chamber glass slides (Nalge Nunc International, Naperville, IL) were incubated in media with indicated reagents. At the end of the experiments, cells were fixed, permeabilized, and incubated with primary antibodies to α-SMA (1:500, Sigma), phospho-FAK (pY397; 1:50, Abcam), vinculin (1:200, Abcam), Alexa Fluor 488 phalloidin (1:200, Invitrogen) or Type I collagen (1:100, Southern Biotech), followed by appropriate secondary antibodies conjugated to Alexa Fluor (Invitrogen), and evaluated under a Nikon C1Si confocal microscope.
# (§5) At the end of the experiments, fibroblasts were harvested and whole cell lysates (100 μg) were subjected to Western-blot analysis[25] using antibodies for Type I collagen (Southern Biotech), α-SMA (Sigma), phospho-Smad2/3 (Cell-Signaling), phospho-FAK (pY397, Cell Signaling), total-FAK (Cell Signaling) or GAPDH (Zymed, San Francisco, CA). Electrophoretic bands were detected using enhanced chemiluminescence reagents (Pierce Biotechnology, Rockford, IL), and band intensities were quantified with Image J software. Results were normalized with GAPDH levels in each sample.
# C57BL6/J mice = experiment: Bleomycin-induced skin fibrosis in mice; format: in vivo, mouse
# From the text: (§6) Bleomycin (BLM) or phosphate buffered saline (PBS) was given by daily subcutaneous (s.c.) injection for 14 consecutive days[55]. In some experiments, mice were given a single s.c. injection of adenovirus expressing constitutively-active TGF-ß1 (TGFß1^223/225 3x10^9 PFU/ml) or beta-galactosidase (5x10^9 PFU/ml)[56]. Peritoneal fibrosis was induced by i.p. injections of 0.1% chlorhexidine gluconate (CG; Wako Pure Chemical Industries, Osaka, Japan) dissolved in 15% ethanol/PBS given on alternate days for 21 days[35]. Synthetic peptides targeting AdipoR (ADP355 or ADP27)[37] or vehicle (PBS) at the indicated concentrations were administered by daily i.p. injection for 14 or 24 days. Each experimental group consisted of 4–8 mice, and experiments were repeated at least two times with consistent results. At the end of the experiments, mice were sacrificed and blood and tissue were collected for analysis.
# Harvested skin or parietal peritoneal membrane samples were fixed in PFA, embedded in paraffin and 4 μm thick sections were stained with hematoxylin and eosin (H&E). Collagen deposition and organization were assessed using Masson’s Trichrome staining. Thickness of the dermis, dWAT or peritoneal membrane were determined at five randomly selected locations/slide using ImageJ software.
# Collagen content of lesional skin was determined by measuring the hydroxyproline content in 6-mm punch biopsy samples (BioVision, Milpitas, CA) (16). Serum levels of adiponectin were determined by ELISA which measures all adiponectin isoforms (Millipore; #EZMADP-60K)[9].
# as §3
# AMPK-null MEFs = experiment: Anti-fibrotic activity in AMPK-null MEFs (qPCR); format: cell-based; conditions: mouse embryonic fibroblasts, ADP355 24 h
# From the text: as §2, §3
# [8] = test system: 3D human skin equivalents populated with normal skin fibroblasts; experiment: 3D human skin equivalents, fibrotic responses (qPCR); format: cell-based; conditions: peptide 10 uM with TGF-β2 for 6 days
# Method: Normal human skin fibroblasts (3 × 10^5cells) were mixed with rat tail Type I collagen (4 mg/ml, BD Biosciences, San Jose, CA) and seeded in 12-well plates, [60]. Epidermal keratinocytes (6 × 10^6 cells) were seeded on the collagen plugs. Forty-eight hours later, the 3D organotypic cultures were placed on metal grids (BD Biosciences) and maintained for 5 days at an air-medium interface. Peptides (10 uM) were then added in media with or without TGF-β, and incubations continued for a further six days. Experiments were harvested, and RNA was isolated for analysis.
# as §3
# [9] = test system: phospho-AMP kinase (Thr172); experiment: AMPK phosphorylation in normal fibroblasts (immunofluorescence); format: cell-based, human; conditions: ADP355 60 min, confocal immunofluorescence
# [10] = Tolerability of chronic treatment in mice; format: in vivo, mouse; conditions: 1 mg/kg/d i.p. for up to 28 days
# From the text: as §6
# skin fibroblasts [11] = experiment: Cytotoxicity, LDH assay; format: cell-based, human; conditions: concentrations of ADP355 used for these experiments (10 μM)
# From the text: as §2
# [12] = test system: normal dermal fibroblasts; experiment: Scratch assay of fibroblast migration; format: cell-based, human; conditions: widths after 48 h
# Method: Figure 4 ADP355 inhibits fibrotic responses in normal and SSc skin fibroblasts. (a–d). Confluent cultures of normal dermal fibroblasts were preincubated with ADP355, followed by TGF-β2 for 24 h. (a) Total RNA was subjected to real-time qPCR. Results are mean ± SD of triplicate determinations. *p < 0.05, **p < 0.01. (b) Western blot of whole cell lysates. Representative results. Fold change in Type I collagen (Cgn I) levels relative to control is shown at bottom. (c) Fibroblasts were transiently transfected with [SBE]4-luc reporter plasmids, and cell lysates were assayed for their luciferase activities. Results are mean ± SD of triplicate determinations. **p < 0.001 (d) Scratch assays were performed and the widths determined after 48 h. Results are mean ± SEM of triplicate determinations at three randomly selected sites. (e) 3D human skin equivalents populated with normal fibroblasts were incubated in media with ADP355 and TGF-β2 for 6 days. RNA was isolated for qPCR. Results are mean ± SD of triplicate determinations *p < 0.05, **p < 0.001. (f) SSc skin fibroblasts (n = 5) incubated with ADP355 for 24 h were immunostained with antibodies to αSMA (green) or type I collagen (Cgn1, red), or stained with DAPI (blue). Left panels, representative immunofluorescence photomicrographs (original magnification × 400). Right panels, immunofluorescence intensity. […]
# SSc skin fibroblasts = experiment: Constitutive fibrotic gene expression in SSc fibroblasts; format: cell-based, human; conditions: unstimulated SSc fibroblasts (n = 5), ADP355 24 h, αSMA and type I collagen immunofluorescence
# Method: as §4, §2
# phospho-Smad2/3 = experiment: Smad2/3 phosphorylation elicited by TGF-ß (Western); format: cell-based, human; conditions: fibroblasts treated with ADP355
# Method: as §5
# [13] = daily i.p. ADP355 initiated concurrently with BLM
molecule,measurement,setting,value
NC(=O)c1ncn([C@@H]2O[C@H](CO)[C@@H](O)[C@H]2O)c1N [AICAR],effect on or relative to the anti-fibrotic activities of adiponectin,[1],mimicked
"CCC[C@H](NC(=O)[C@@H]1CCCN1C(=O)[C@@H](NC(=O)[C@H](N)CC(N)=O)[C@@H](C)CC)C(=O)N[C@@H](CC(C)C)C(=O)N[C@@H](Cc1ccc(O)cc1)C(=O)N[C@H](CO)C(=O)N[C@@H](Cc1ccccc1)C(=O)N[C@@H](C)C(=O)N[C@H](CO)C(N)=O [ADP355, H-DAsn-Ile-Pro-Nva-Leu-Tyr-DSer-Phe-Ala-DSer-NH2] (HELM PEPTIDE1{[dN].I.P.[Nva].L.Y.[dS].F.A.[dS].[am]}$$$$V2.0)",binding to fibroblasts,skin fibroblasts [2],Specific binding
same,ex vivo stability in serum,[3],"excellent ex vivo stability, with detectable levels of intact peptide even after 30 min incubation with serum"
same,inhibitory effects on fibrotic gene expression,"[4]; adult skin fibroblasts, data not shown",Comparable inhibitory effects
same,"COL1A1, COL1A2, ASMA, and fibronectin (FN) gene expression induced by TGF-ß","[4]; neonatal skin fibroblasts, ADP355 10 μM preincubation then TGF-β2 24 h, qPCR and Western blot",potent abrogation
same,hypoadiponectinemia and loss of subcutaneous adipose tissue induced by HIV protease inhibitors,[5],reverse
same,anti-tumor effects,[6],anti-tumor effects
same,AdipoR agonist activity,AdipoR,potent AdipoR agonist
same,stimulation of [SBE]4-luc activity by TGF-ß,[7],abrogated
same,FAK activation and focal adhesion complex assembly augmented by TGF-ß,p-FAK Y397,substantially attenuated
same,"skin fibrosis, low dose","C57BL6/J mice; 0.2 mg/kg/d, multiple independent experiments",Significant attenuation
same,"skin fibrosis, high dose","C57BL6/J mice; 1 mg/kg/d, multiple independent experiments",Significant attenuation
same,"dermal thickness, peptide by itself","C57BL6/J mice; ADP355 alone, without BLM",no significant effect
same,BLM-induced collagen accumulation,C57BL6/J mice; [13],significantly mitigated
same,BLM-induced dWAT attrition,C57BL6/J mice; [13],significantly mitigated
same,BLM-induced increase in dermal thickness,"C57BL6/J mice; daily i.p. ADP355 initiated concurrently with BLM (s.c. 14 d), continued for 21 d",significantly mitigated
same,BLM-induced fibrotic gene expression,"C57BL6/J mice; daily i.p. ADP355 initiated concurrently with BLM, qPCR of lesional skin",significantly mitigated
same,established dermal fibrosis,"C57BL6/J mice; treatment initiated at day 10 of BLM, data not shown",reversed established dermal fibrosis
same,anti-fibrotic activity in AMPK-null MEFs,AMPK-null MEFs,failed to exert anti-fibrotic activity
same,fibrotic responses in 3D human skin equivalents,[8],attenuated fibrotic responses
same,AMPK phosphorylation,[9],induced AMPK phosphorylation
same,tolerability of chronic treatment,[10],"well tolerated, with no signs of toxicity"
same,cell viability,skin fibroblasts [11],No effects on cell viability
same,stimulation of fibroblast migration,[12],abrogated the stimulation of fibroblast migration
same,constitutive fibrotic gene expression,SSc skin fibroblasts,mitigated constitutive fibrotic gene expression
same,Smad2/3 phosphorylation elicited by TGF-ß,phospho-Smad2/3,partially reduced
c1cc(-c2cnn3cc(-c4ccc(OCCN5CCCCC5)cc4)cnc23)ccn1 [Compound C],effect on or relative to the anti-fibrotic activities of adiponectin,[1],blocked
"H-LYYFAYHITV-NH2 [ADP27, H-Leu-Tyr-Tyr-Phe-Ala-Tyr-His-Ile-Thr-Val-NH2]",anti-fibrotic effects in mice compared with ADP355,"C57BL6/J mice; mice treated with ADP27, Supplementary Fig. 9a,b",Comparable anti-fibrotic effects
B1,half-life,[5],relatively short half-life
same,solubility,[5],extreme insolubility
